Patent publication US11945794B2, “Nuclear transport modulators and uses thereof” (Karyopharm Therapeutics Inc., priority 2013, dated 2024)
pIC50: −log10 of the molar value.

Legend:
3T3 cells = experiment: MTT cell proliferation assay; type: cell-based; details: Mus musculus, NIH3T3, approximately 64-72 hours
Description: (§1) The MTT cell proliferation assay was used to study the cytotoxic properties of the compounds. The assay was performed according to the method described by Roche Molecular Biochemicals, with minor modifications. The assay is based on the cleavage of the tetrazolium salt, MTT, in the presence of an electron-coupling reagent. The water-insoluble formazan salt produced must be solubilized in an additional step. Cells grown in a 96-well tissue culture plate were incubated with the MTT solution for approximately 4 hours. After this incubation period, a water-insoluble formazan dye formed. After solubilization, the formazan dye was quantitated using a scanning multi-well spectrophotometer (ELISA reader). […] The cells were seeded at 5,000-10,000 cells in each well of 96-well plate in 100 μL of fresh culture medium and were allowed to attach overnight. The stock solutions of the compounds were diluted in 100 μL cell culture medium to obtain eight concentrations of each test compound, ranging from 1 nM to 30 μM. […] All optical densities were measured at 490 nm using a Vmax Kinetic Microplate Reader (Molecular Devices). In most cases, the assay was performed in duplicate and the results were presented as a mean percent inhibition to the negative control±SE. The following formula was used to calculate the percent of inhibition: Inhibition (%)=(1−(ODo/OD))×100.
(§2) The compounds were tested against Z138, MM1S and 3T3 cells. The Z138 cell line is a mature B-cell acute lymphoblastic leukemia cell line derived from a patient with chronic lumphocytic leukemia. The MM1S cell line was established from the peripheral blood of a human multiple myeloma patient. 3T3 cells are standard fibroblast cells; they were originally isolated from Swiss mouse embryo tissue.

MM1S cells = experiment: MTT cell proliferation assay; type: cell-based; details: Homo sapiens, MM1.S, approximately 64-72 hours
Description: as §1, §2

Z138 cells = experiment: MTT cell proliferation assay; type: cell-based; details: Homo sapiens, Z-138, approximately 64-72 hours
Description: as §1, §2

CRM1 = biological target: T1, CRM1 (Homo sapiens, UniProt O14980); experiment: Inhibition of nuclear export, RevGFP assay in U2OS-RevGFP cells; type: cell-based; details: approximately 1 hour incubation
T1 construct: endogenous in cells; host or cells: U2OS cells stably expressing Rev-GFP
T1 sequence (O14980 whole entry): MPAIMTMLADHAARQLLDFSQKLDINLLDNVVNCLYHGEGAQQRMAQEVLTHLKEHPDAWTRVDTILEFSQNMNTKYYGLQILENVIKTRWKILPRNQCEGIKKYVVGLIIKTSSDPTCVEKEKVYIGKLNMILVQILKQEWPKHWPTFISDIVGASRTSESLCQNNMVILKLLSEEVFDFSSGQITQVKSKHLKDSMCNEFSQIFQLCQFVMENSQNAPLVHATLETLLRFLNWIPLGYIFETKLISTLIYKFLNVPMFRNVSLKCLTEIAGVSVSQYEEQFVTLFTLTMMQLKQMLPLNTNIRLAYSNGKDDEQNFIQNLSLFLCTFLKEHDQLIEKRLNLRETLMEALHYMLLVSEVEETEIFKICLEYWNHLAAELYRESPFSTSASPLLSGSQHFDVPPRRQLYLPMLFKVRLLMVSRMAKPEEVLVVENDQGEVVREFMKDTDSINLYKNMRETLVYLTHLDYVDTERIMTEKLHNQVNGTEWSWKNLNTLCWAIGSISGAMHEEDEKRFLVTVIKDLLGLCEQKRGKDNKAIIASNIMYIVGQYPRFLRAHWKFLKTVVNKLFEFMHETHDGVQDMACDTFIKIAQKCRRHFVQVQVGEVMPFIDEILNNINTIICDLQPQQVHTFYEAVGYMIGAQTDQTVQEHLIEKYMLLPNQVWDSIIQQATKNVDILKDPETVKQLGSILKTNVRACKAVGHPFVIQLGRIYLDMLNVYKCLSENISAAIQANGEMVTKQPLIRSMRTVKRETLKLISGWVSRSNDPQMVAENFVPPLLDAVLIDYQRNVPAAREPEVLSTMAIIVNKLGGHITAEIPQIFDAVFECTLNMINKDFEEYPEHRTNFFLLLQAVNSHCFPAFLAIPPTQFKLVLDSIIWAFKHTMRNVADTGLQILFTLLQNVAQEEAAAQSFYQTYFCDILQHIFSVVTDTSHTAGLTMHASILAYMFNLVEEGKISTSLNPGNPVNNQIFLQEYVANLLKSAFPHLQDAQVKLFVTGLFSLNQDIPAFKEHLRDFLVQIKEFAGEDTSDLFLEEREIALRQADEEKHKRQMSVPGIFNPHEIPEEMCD
Description: The inhibition of CRM1 mediated nuclear export by compounds of the invention was determined in a RevGFP assay. Rev is a protein from human immunodeficiency virus type 1 (HIV-1) and contains a nuclear export signal (NES) in its C-terminal domain and a nuclear localization signal (NLS) in its N-terminal domain. Nuclear export of Rev protein is dependent on the classical NES/CRM1 pathway (Neville et al, 1997, Kau et al, 2003).
In this assay, U2OS-RevGFP cells were seeded onto clear-bottom, black, 384-well plates the day before the experiment. Compounds were serially diluted 1:2 starting from 40 μM in a separate 384-well plate in DMEM, and then transferred onto cells. Cells were incubated with compound for approximately 1 hour before fixation with 3.7% formaldehyde and nuclei staining with Hoechst 33258. The amount of GFP in cell nuclei was measured and compound IC50s were determined (Kau et al, 2003).

MDA-MB-468 xenograft = MDA-MB-468 xenograft model; type: in vivo, mouse; details: 10 mg/kg PO once daily, CB-17 SCID mice, compared to vehicle
Description: MDA-MB-468 (ATCC #HTB-102) breast adenocarcinoma cells were obtained from ATCC. These cells were grown in high glucose DMEM medium supplemented with 10% fetal bovine serum, 1% penicillin and streptomycin, and 2 mM L-Glutamine. Cells were sub-cultured by dilution at a ratio of 1:4. MDA-MB-468 cells were harvested by trypsinization and counted using a hemocytometer. Cells were resuspended in PBS at a concentration of 4×10^8 cells per mL. Cells were placed on ice and mixed with an equal volume of Matrigel (BD Biosciences CB-40234). Twenty-two (22) CB-17 SCID mice were inoculated sub-cutaneously in the left flank with 4×10^7 MDA-MB-468 cells. Treatment was initiated when the tumors reached a mean volume of ˜100 mm^3. […] Animals' weights and condition were recorded daily, and tumors were measured on Mondays, Wednesdays, and Fridays.

Structure (SMILES)	pIC50 (MM1S cells)	pIC50 (CRM1)	pIC50 (3T3 cells)	pIC50 (Z138 cells)	mean tumor volume (MDA-MB-468 xenograft)
NC(=O)/C(=C\n1cnc(-c2cc(C(F)(F)F)cc(C(F)(F)F)c2)n1)c1ccc(Cl)nc1 [Compound 156, (Z)-3-(3-(3,5-bis(trifluoromethyl)phenyl)-1H-1,2,4-triazol-1-yl)-2-(6-chloropyridin-3-yl)acrylamide]	5.30 to 7.00	5.30 to 7.00	< 4.52	5.30 to 7.00	
COc1ccc(/C(=C\n2cnc(-c3cc(C(F)(F)F)cc(C(F)(F)F)c3)n2)C(=O)OC(C)C)cn1 [Compound 120, isopropyl (E)-3-(3-(3,5-bis (trifluoromethyl)phenyl)-1H-1,2,4-triazol-1-yl)-2-(6-methoxypyridin-3-yl) acrylate]	5.30 to 7.00	5.30 to 7.00	< 4.52	5.30 to 7.00	
N#C/C(=C/n1cnc(-c2cc(C(F)(F)F)cc(C(F)(F)F)c2)n1)c1cccnc1 [Compound 102, (E)-3-(3-(3,5-bis(trifluoromethyl)phenyl)-1H-1,2,4-triazol-1-yl)-2-(pyridin-3-yl)acrylonitrile]	5.30 to 7.00	5.30 to 7.00	4.52 to 5.30	5.30 to 7.00	
NC(=O)/C(=C/n1cnc(-c2cc(C(F)(F)F)cc(C(F)(F)F)c2)n1)c1ccncc1 [Compound 108, (E)-3-(3-(3,5-bis(trifluoromethyl)phenyl)-1H-1,2,4-triazol-1-yl)-2-(pyridin-4-yl)acrylamide]	> 7.00	> 7.00	< 4.52	5.30 to 7.00	
CC(C)OC(=O)/C(=C/n1cnc(-c2cc(C(F)(F)F)cc(C(F)(F)F)c2)n1)c1cccnc1 [Compound 101, (E)-isopropyl 3-(3-(3,5-bis(trifluoromethyl)phenyl)-1H-1,2,4-triazol-1-yl)-2-(pyridin-3-yl)acrylate]	> 7.00	4.52 to 5.30	4.52 to 5.30	5.30 to 7.00	
NC(=O)/C(=C/n1cnc(-c2cc(C(F)(F)F)cc(C(F)(F)F)c2)n1)c1cnc(N)nc1 [Compound 136, (E)-2-(2-aminopyrimidin-5-yl)-3-(3-(3,5-bis(trifluoromethyl)phenyl)-1H-1,2,4-triazol-1-yl)acrylamide]	> 7.00	5.30 to 7.00	< 4.52	5.30 to 7.00	
CC(C)OC(=O)/C(=C/n1cnc(-c2cc(C(F)(F)F)cc(C(F)(F)F)c2)n1)c1cncc(F)c1 [Compound 119, isopropyl (E)-3-(3-(3,5-bis(trifluoromethyl)phenyl)-1H-1,2,4-triazol-1-yl)-2-(5-fluoropyridin-3-yl)acrylate]	5.30 to 7.00	5.30 to 7.00	< 4.52	5.30 to 7.00	
NC(=O)/C(=C/n1cnc(-c2cc(C(F)(F)F)cc(C(F)(F)F)c2)n1)c1ccnc(F)c1 [Compound 140, (E)-3-(3-(3,5-bis(trifluoromethyl)phenyl)-1H-1,2,4-triazol-1-yl)-2-(2-fluoropyridin-4-yl)acrylamide]	> 7.00	> 7.00	< 4.52	> 7.00	
Cc1noc(C)c1/C(=C\n1cnc(-c2cc(C(F)(F)F)cc(C(F)(F)F)c2)n1)C(N)=O [Compound 118, (E)-3-(3-(3,5-bis(trifluoromethyl)phenyl)-1H-1,2,4-triazol-1-yl)-2-(3,5-dimethylisoxazol-4-yl) acrylamide]	5.30 to 7.00	5.30 to 7.00	< 4.52	5.30 to 7.00	
N#CC(=Cn1cnc(-c2cc(C(F)(F)F)cc(C(F)(F)F)c2)n1)c1ccccn1 [Compound 100, 3-(3-(3,5-bis(trifluoromethyl)phenyl)-1H-1,2,4-triazol-1-yl)-2-(pyridin-2-yl)acrylonitrile]	< 4.52	< 4.52	< 4.52	< 4.52	
NC(=O)/C(=C/n1cnc(-c2cc(C(F)(F)F)cc(C(F)(F)F)c2)n1)c1cnc(F)nc1 [Compound 137, (E)-3-(3-(3,5-bis(trifluoromethyl)phenyl)-1H-1,2,4-triazol-1-yl)-2-(2-fluoropyrimidin-5-yl)acrylamide]	> 7.00	> 7.00	< 4.52	5.30 to 7.00	
NC(=O)/C(=C/n1cnc(-c2cc(C(F)(F)F)cc(C(F)(F)F)c2)n1)c1ccc(Cl)nc1 [Compound 143, (E)-3-(3-(3,5-bis(trifluoromethyl)phenyl)-1H-1,2,4-triazol-1-yl)-2-(6-chloropyridin-3-yl)acrylamide]	> 7.00	5.30 to 7.00	< 4.52	5.30 to 7.00	
NC(=O)/C(=C/n1cnc(-c2cc(C(F)(F)F)cc(C(F)(F)F)c2)n1)c1ccnc(C(F)(F)F)c1 [Compound 147, (E)-3-(3-(3,5-bis(trifluoromethyl)phenyl)-1H-1,2,4-triazol-1-yl)-2-(2-(trifluoromethyl)pyridin-4-yl)acrylamide]	> 7.00	> 7.00	5.30 to 7.00	5.30 to 7.00	

Now from value to molecule, other results behind:

pIC50 (MM1S cells)	pIC50 (CRM1)	Structure (SMILES)	pIC50 (3T3 cells)	pIC50 (Z138 cells)	mean tumor volume (MDA-MB-468 xenograft)
> 7.00	> 7.00	NC(=O)/C(=C/n1cnc(-c2cc(C(F)(F)F)cc(C(F)(F)F)c2)n1)c1ccncc1F [Compound 138, (E)-3-(3-(3,5-bis(trifluoromethyl)phenyl)-1H-1,2,4-triazol-1-yl)-2-(3-fluoropyridin-4-yl)acrylamide]	5.30 to 7.00	> 7.00	
> 7.00	5.30 to 7.00	NC(=O)/C(=C/n1cnc(-c2cc(C(F)(F)F)cc(C(F)(F)F)c2)n1)c1cncc(Cl)c1 [Compound 141, (E)-3-(3-(3,5-bis(trifluoromethyl)phenyl)-1H-1,2,4-triazol-1-yl)-2-(5-chloropyridin-3-yl)acrylamide]	< 4.52	5.30 to 7.00	
> 7.00	> 7.00	NC(=O)/C(=C\n1cnc(-c2cc(C(F)(F)F)cc(C(F)(F)F)c2)n1)c1ccnc(F)c1 [Compound 155, (Z)-3-(3-(3,5-bis(trifluoromethyl)phenyl)-1H-1,2,4-triazol-1-yl)-2-(2-fluoropyridin-4-yl)acrylamide]	5.30 to 7.00	> 7.00	
> 7.00	> 7.00	N#Cc1cncc(/C(=C\n2cnc(-c3cc(C(F)(F)F)cc(C(F)(F)F)c3)n2)C(N)=O)c1 [Compound 148, (E)-3-(3-(3,5-bis(trifluoromethyl)phenyl)-1H-1,2,4-triazol-1-yl)-2-(5-cyanopyridin-3-yl)acrylamide]	< 4.52	> 7.00	
> 7.00	> 7.00	NC(=O)/C(=C/n1cnc(-c2cc(C(F)(F)F)cc(C(F)(F)F)c2)n1)c1cnc2ccccc2c1 [Compound 149, (E)-3-(3-(3,5-bis(trifluoromethyl)phenyl)-1H-1,2,4-triazol-1-yl)-2-(quinolin-3-yl)acrylamide]	< 4.52	> 7.00	mean tumor volume was reduced
> 7.00	5.30 to 7.00	NC(=O)/C(=C/n1cnc(-c2cc(C(F)(F)F)cc(C(F)(F)F)c2)n1)c1cccnc1 [Compound 104, (E)-3-(3-(3,5-bis(trifluoromethyl)phenyl)-1H-1,2,4-triazol-1-yl)-2-(pyridin-3-yl)acrylamide]	5.30 to 7.00	> 7.00	
